Experimental data: PMC3397407 (Journal of Medicinal Chemistry, 2012)

Assays:
[1] = Metabolic stability with pooled human liver microsomes
[2] = system: RXRE transcriptional activity (COS-1 cells transfected with pRXRE, phRXRα and pRL); test: RXRE-luciferase reporter gene assay; conditions: for absolute activity induced (firefly luciferase, not normalized): 24 h incubation conditions; for maximum enhancement of RXRE transcriptional activity: after 4–6 h of incubation
[3] = rat, gavage 40 mg/kg daily for 3 days; cited from earlier work
[4] = 10 µM, glutathione 10 mM, NADPH, 60 min
NFκB = NFκB luciferase assay; assay type: cell-based, Human
[5] = In vivo disposition and metabolites of 3 in rats after gavage; design: species or system rat; conditions: after gavage of 3
[6] = Chemical stability of synthetic metabolite 4; assay type: physicochemical; conditions: air and moisture or DMSO solution

NCCCn1c2c(c3ccc(N)cc3c1=O)C(=O)c1ccccc1-2 [Compound 3, 3-amino-6-(3'-aminopropyl)-5H-indeno[1,2-c]isoquinoline-5,11-(6H)dione]
elimination rate constant ([1]; 1 µM, 1 mg protein/mL, 60 min): 0.0053 | CLint scaled at 1 µM ([1]; both, human, microsomes, pH 7.4): 5.33 mL/min/kg | RXRE Highest IR (maximum induction ratio) [2]: 7.67±0.37 | absolute activity induced (firefly luciferase, not normalized) [2]: 40.5 ± 5.4 fold | RXRE induction ([2]; 24 h incubation, 5 µM): ~ 160 fold | induction ratio normalized on Renilla luciferase activity ([2]; 24 h incubation, Figure 9): exceeded 100 fold | maximum enhancement of RXRE transcriptional activity [2]: 5 fold | concentration in liver [3]: 4.3 µg/g | concentration in mammary gland [3]: 0.3 µg/g | concentration in serum [3]: 800 ng/mL | formation of glutathione conjugates (electrophilic metabolites) [4]: no evidence of glutathione conjugates

Nc1ccc2c3c(n(CCCO)c(=O)c2c1)-c1ccccc1C3O (centres unmarked) [Compound 8, 3-Amino-11-hydroxy-6-(3-hydroxypropyl)-6,11-dihydro-5H-indeno[1,2-c]isoquinolin-5-one]
activity as inhibitor of NFκB, in words (NFκB): inhibited activity as high concentrations | metabolite detected in rat liver [5]: detected in rat liver | metabolite detected in rat mammary tissue [5]: not in serum or mammary tissue

CC(=O)Nc1ccc2c3c(n(CCCO)c(=O)c2c1)-c1ccccc1C3=O [Compound 9, N-[6-(3-Hydroxypropyl)-5,11-dioxo-6,11-dihydro-5H-indeno[1,2-c]isoquinolin-3-yl]acetamide]
metabolite detected in rat liver [5]: detected in rat liver | metabolite detected in rat mammary tissue [5]: not in serum or mammary tissue

CC(=O)Nc1ccc2c3c(n(CCCN)c(=O)c2c1)-c1ccccc1C3=O [Compound 5, N-[6-(3-Aminopropyl)-5,11-dioxo-6,11-dihydro-5H-indeno[1,2-c]isoquinolin-3-yl]acetamide]
metabolite detected in rat liver [5]: detected | metabolite detected in rat mammary tissue [5]: not in mammary tissue | metabolite detected in rat serum [5]: detected | activity as inducer of RXRE transcriptional activity, in words [2]: moderately active at high concentrations

CNc1ccc2c3c(n(CCCN)c(=O)c2c1)-c1ccccc1C3O (centres unmarked) [Compound 29]
concentration range of NFκB inhibition, in words (NFκB): sub-µM concentrations

C=C(c1ccc(C(=O)O)cc1)c1cc2c(cc1C)C(C)(C)CCC2(C)C [Compound 2, bexarotene, reference compound]
absolute activity induced (firefly luciferase, not normalized) [2]: 22.4 ± 3.1 fold | maximum enhancement of RXRE transcriptional activity [2]: 10 fold | RXRE IR ([2]; at 40 µM): 8.85±3.89

CNc1ccc2c3c(n(CCCNC(=O)OC(C)(C)C)c(=O)c2c1)-c1ccccc1C3O (centres unmarked) [Compound 27]
concentration range of NFκB inhibition, in words (NFκB): sub-µM concentrations

NCCCn1c2c(c3ccc(N)cc3c1=O)C(O)c1ccccc1-2 (centres unmarked) [Compound 4, 3-Amino-6-(3-aminopropyl)-11-hydroxy-6,11-dihydro-5H-indeno[1,2-c]isoquinolin-5-one]
metabolite detected in rat liver [5]: detected in rat liver | metabolite detected in rat mammary tissue [5]: not in serum or mammary tissue | chemical stability [6]: rather unstable and slowly oxidized back to 3

Nc1ccc2c3c(n(CCCO)c(=O)c2c1)-c1ccccc1C3=O [Compound 7, 6-(3-Hydroxypropyl)-3-amino-5H-indeno[1,2-c]isoquinoline-5,11(6H)dione]
metabolite detected in rat liver [5]: detected in rat liver | metabolite detected in rat mammary tissue [5]: not in serum or mammary tissue

CNCCCn1c2c(c3ccc(N)cc3c1=O)C(O)c1ccccc1-2 (centres unmarked) [Compound 34]
concentration range of NFκB inhibition, in words (NFκB): sub-µM concentrations

CC(=O)Nc1ccc2c3c(n(CCCN)c(=O)c2c1)-c1ccccc1C3O (centres unmarked) [Compound 6, N-[6-(3-Aminopropyl)-11-hydroxy-5-oxo-6,11-dihydro-5H-indeno[1,2-c]isoquinolin-3-yl]acetamide]
metabolite observed in vivo using rats [5]: all except 6 and 10 were observed in vivo
